Activity calls are given as the source filed them.
How the values were obtained:
[1] = target: Luciferin 4-monooxygenase (Photinus pyralis, UniProt P08659); assay: firefly luciferase enzyme inhibitors, dose response, biochemical, luminescence (AID 1891)
[2] = Luminescence Cell-Based Dose Confirmation HTS to Identify Inhibitors of Platelet Dense Granule Release. [Related pubchem assays: 1663 (Primary HTS), 1678 (Summary of Project)]; type: functional
[3] = Late stage counterscreen results from the probe development effort to identify activators of signal transducer and activator of transcription 1 (STAT1): luminescence-based cell-based dose response assay to identify cytotoxic compounds.; type: functional
[4] = target: T1, Cytochrome P450 2C19 (Homo sapiens, UniProt P33261); assay: Cytochrome panel assay with activity outcomes. Panel member name: p450-cyp2c19 Compounds with AC50 equal or less than 10 uM are considered active; type: functional; details: read-out: AC50
[5] = inhibitors of Vif binding to APOBEC3G peptide, primary screen, biochemical, TR-FRET, GST-Vif 1-94, biotin-A3G peptide, dose response retest (AID 1117319); type: functional;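 also: TR-FRET signal of purified GST-Vif binding a biotinylated A3G peptide; inhibitors lower the FRET signal by blocking Vif and A3G binding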
[6] = target: Cytochrome P450 2C9 (Homo sapiens, UniProt P11712)
[7] = target: Phospholipase D2 (Homo sapiens, UniProt O14939); assay: PLD2 Cellular Concentration Response Study.; type: functional
[8] = target: Phospholipase D1 (Homo sapiens, UniProt Q13393); assay: PLD1 Cellular Concentration Response Study.; type: functional
[9] = target: Genome polyprotein (Hepatitis C virus, UniProt Q2Q167); assay: HCV core protein dimerization inhibitors, dose response, biochemical, TR-FRET (AID 2159); parameters: species or system Hepacivirus hominis;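 also: blocks dimerization of HCV core protein measured by TR-FRET between tagged core106 pairs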
[10] = target: T2, Carboxy-terminal domain RNA polymerase II polypeptide A small phosphatase 1 (Homo sapiens, UniProt Q9GZU7); assay: inhibitors of CTDSP1, concentration-response testing, biochemical assay, absorbance-based, actives from ultra-high-throughput screening (AID 540297); type: functional
T2 sequence (Q9GZU7 whole entry): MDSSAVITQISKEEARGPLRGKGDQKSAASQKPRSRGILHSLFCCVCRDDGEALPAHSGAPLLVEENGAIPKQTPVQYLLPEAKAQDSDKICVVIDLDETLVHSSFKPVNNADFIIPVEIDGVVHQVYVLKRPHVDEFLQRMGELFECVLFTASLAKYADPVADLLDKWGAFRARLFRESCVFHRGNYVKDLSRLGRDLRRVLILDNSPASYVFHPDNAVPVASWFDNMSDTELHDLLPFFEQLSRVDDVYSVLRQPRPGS

[11] = target: T3, Probable nicotinate-nucleotide adenylyltransferase (Staphylococcus aureus (strain N315), UniProt P65502); type: functional, Staphylococcus aureus subsp. aureus N315;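 as to IC50 Mean: confirmatory dose-response retesting of NadD inhibitor hits first found in an ultra-high-throughput screen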
[12] = target: T3, Probable nicotinate-nucleotide adenylyltransferase; type: functional, Staphylococcus aureus subsp. aureus N315; details: read-out: IC50_Mean
[13] = TRPM1 promoter luciferase reporter signal decrease, dose response, MITF inhibitor project, cell-based, SK-MEL-5, dry powder, set 9 (AID 651588); type: functional
[14] = A375 melanoma cell viability loss, dose response, counter-screen for MITF inhibitor project, CellTiter-Glo luminescence, dry powder, set 4 (AID 624364); type: functional, cell-based; details: A-375;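 also: A375 melanoma cells are MITF independent so this is a counter screen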
[15] = A375 melanoma cell cytotoxicity, dose response, counter-screen for MITF inhibitor project, CellTiter-Glo luminescence, dry powder, set 7 (AID 624490); type: functional, cell-based; details: A-375
[16] = MITF Orthogonal Assay: MALME3 CTG Assay Measured in Cell-Based System Using Plate Reader - 2084-04_Inhibitor_Dose_DryPowder_Activity_Set6.; type: functional; details: MALME-3
[17] = SK-MEL-5 parental cell viability reduction, dose response, orthogonal assay for MITF inhibitor project, CellTiter-Glo luminescence, dry powder, set 8 (AID 651586); type: functional, cell-based
[18] = MALME3 melanoma cell viability reduction, dose response, orthogonal assay for MITF inhibitor project, CellTiter-Glo luminescence, dry powder, set 5 (AID 651584); type: functional, cell-based; details: MALME-3
[19] = SK-MEL-5 parental line viability, dose response, MITF inhibitor project, cell-based, CellTiter-Glo, dry powder, set 6 (AID 624429); type: functional
[20] = MITF Orthogonal Assay: SK-MEL-5 CTG Assay Measured in Cell-Based System Using Plate Reader - 2084-02_Inhibitor_Dose_DryPowder_Activity_Set5.; type: functional
[21] = A375 melanoma cell cytotoxicity, dose response, counter-screen for MITF inhibitor project, CellTiter-Glo luminescence, dry powder, set 6 (AID 624488); type: functional, cell-based; details: A-375
[22] = A375 melanoma cell viability loss, dose response, counter-screen for MITF modulator project, CellTiter-Glo luminescence, dry powder, set 9 (AID 651591); type: functional, cell-based; details: A-375
[23] = MITF Measured in Cell-Based System Using Plate Reader - 2084-01_Inhibitor_Dose_DryPowder_Activity_Set6.; type: functional
[24] = A375 melanoma cell cytotoxicity, dose response, counter-screen for MITF inhibitor project, CellTiter-Glo luminescence, dry powder, set 2 (AID 624489); type: functional, cell-based; details: A-375;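 also: actives are compounds lowering A375 viability meaning general cytotoxicity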
[25] = MITF Measured in Cell-Based System Using Plate Reader - 2084-01_Inhibitor_Dose_DryPowder_Activity_Set7.; type: functional
[26] = cytotoxicity in primary human melanocytes, dose response, cytotoxicity control, cell-based, plate reader, dry powder (AID 651920); type: functional
[27] = target: NADPH oxidase 1 (Homo sapiens, UniProt Q9Y5S8); assay: Late stage results from the probe development effort to identify inhibitors of NOX1: HEK/293 IC50. [Related pubchem assays: 1796 (Summary AID (NOX1)), 2752 (Primary screen (NOX1 inhibitors, synthesized analogs set 2)), 2664 (Primary screen (NOX1 inhibitors, synthesized analogs)), 1792 (Primary Screen (NOX1)), 2545 (Confirmation screen (NOX1 …; type: functional
[28] = target: T1, Cytochrome P450 2C19; assay: qHTS Assay for Inhibitors and Substrates of Cytochrome P450 2C19. [Related pubchem assays: 410 ]; type: ADME; details: read-out: Potency

T3 sequence (P65502 whole entry): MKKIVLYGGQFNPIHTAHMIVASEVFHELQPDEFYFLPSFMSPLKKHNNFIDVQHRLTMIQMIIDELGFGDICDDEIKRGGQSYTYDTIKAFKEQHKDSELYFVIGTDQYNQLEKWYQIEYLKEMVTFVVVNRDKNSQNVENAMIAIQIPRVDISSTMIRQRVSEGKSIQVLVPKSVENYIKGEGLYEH
T1 sequence (P33261 whole entry): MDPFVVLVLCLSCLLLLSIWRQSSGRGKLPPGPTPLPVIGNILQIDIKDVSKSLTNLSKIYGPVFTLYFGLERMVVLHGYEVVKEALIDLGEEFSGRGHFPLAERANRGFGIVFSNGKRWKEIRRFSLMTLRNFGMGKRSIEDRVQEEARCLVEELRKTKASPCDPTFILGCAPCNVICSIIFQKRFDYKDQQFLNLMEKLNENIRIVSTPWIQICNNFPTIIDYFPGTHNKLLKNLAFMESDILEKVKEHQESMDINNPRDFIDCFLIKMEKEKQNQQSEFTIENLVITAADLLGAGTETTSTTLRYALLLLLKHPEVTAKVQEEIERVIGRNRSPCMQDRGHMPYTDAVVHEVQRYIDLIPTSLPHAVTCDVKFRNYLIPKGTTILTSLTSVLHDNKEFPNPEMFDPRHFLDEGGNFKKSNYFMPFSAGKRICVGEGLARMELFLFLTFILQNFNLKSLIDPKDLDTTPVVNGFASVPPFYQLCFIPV
Sequence of Cytochrome P450 2C9 (P11712 whole entry): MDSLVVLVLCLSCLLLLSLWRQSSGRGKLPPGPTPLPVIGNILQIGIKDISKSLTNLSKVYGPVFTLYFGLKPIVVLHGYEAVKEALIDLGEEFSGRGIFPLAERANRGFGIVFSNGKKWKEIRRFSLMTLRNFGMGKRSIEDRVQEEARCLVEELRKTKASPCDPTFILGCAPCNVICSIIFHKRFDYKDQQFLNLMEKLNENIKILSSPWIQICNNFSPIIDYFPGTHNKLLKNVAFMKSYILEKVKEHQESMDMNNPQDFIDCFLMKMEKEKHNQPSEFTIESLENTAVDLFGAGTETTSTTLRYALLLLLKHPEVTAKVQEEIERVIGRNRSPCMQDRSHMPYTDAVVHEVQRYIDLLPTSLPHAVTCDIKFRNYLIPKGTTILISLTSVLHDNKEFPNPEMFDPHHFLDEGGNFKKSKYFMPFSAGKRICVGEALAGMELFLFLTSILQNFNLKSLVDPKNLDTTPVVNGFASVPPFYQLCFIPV
Sequence of Luciferin 4-monooxygenase (P08659 whole entry): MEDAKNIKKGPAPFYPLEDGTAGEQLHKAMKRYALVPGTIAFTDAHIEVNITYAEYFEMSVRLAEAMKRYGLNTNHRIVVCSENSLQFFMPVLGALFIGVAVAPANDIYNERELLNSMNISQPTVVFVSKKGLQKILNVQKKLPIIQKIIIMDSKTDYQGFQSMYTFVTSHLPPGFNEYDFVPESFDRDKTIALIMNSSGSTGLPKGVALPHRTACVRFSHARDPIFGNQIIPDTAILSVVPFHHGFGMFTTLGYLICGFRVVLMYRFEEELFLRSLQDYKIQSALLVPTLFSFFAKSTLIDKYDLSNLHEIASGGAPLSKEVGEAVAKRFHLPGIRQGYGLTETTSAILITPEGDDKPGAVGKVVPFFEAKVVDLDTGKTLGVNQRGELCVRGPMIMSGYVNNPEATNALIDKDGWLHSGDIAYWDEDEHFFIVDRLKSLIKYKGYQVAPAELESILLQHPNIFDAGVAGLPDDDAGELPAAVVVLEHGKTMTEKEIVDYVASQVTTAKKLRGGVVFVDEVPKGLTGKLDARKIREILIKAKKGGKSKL
Sequence of Phospholipase D2 (O14939 whole entry): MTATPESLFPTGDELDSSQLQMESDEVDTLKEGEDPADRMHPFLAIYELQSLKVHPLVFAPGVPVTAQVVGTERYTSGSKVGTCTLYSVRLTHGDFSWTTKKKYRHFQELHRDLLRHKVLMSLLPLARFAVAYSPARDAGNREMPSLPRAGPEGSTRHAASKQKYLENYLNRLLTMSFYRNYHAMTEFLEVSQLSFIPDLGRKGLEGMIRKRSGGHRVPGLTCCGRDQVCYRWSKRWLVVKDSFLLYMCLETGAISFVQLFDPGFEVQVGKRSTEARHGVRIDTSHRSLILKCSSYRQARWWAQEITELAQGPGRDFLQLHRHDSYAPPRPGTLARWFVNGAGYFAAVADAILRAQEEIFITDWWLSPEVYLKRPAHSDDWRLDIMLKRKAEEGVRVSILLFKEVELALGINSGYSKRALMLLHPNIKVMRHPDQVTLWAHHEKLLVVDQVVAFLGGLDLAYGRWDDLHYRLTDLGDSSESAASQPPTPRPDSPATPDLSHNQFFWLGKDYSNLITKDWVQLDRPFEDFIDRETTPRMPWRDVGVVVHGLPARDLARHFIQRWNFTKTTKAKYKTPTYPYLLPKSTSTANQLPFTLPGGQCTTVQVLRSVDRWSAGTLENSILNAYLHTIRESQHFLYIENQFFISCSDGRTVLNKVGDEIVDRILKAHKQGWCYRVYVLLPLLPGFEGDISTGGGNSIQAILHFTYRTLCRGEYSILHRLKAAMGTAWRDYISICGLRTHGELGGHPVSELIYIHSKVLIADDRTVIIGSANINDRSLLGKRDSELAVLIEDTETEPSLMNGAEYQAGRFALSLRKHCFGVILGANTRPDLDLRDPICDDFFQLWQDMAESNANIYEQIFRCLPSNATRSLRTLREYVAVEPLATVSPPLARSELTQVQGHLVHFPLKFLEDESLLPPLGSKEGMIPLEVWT
Sequence of Phospholipase D1 (Q13393 whole entry): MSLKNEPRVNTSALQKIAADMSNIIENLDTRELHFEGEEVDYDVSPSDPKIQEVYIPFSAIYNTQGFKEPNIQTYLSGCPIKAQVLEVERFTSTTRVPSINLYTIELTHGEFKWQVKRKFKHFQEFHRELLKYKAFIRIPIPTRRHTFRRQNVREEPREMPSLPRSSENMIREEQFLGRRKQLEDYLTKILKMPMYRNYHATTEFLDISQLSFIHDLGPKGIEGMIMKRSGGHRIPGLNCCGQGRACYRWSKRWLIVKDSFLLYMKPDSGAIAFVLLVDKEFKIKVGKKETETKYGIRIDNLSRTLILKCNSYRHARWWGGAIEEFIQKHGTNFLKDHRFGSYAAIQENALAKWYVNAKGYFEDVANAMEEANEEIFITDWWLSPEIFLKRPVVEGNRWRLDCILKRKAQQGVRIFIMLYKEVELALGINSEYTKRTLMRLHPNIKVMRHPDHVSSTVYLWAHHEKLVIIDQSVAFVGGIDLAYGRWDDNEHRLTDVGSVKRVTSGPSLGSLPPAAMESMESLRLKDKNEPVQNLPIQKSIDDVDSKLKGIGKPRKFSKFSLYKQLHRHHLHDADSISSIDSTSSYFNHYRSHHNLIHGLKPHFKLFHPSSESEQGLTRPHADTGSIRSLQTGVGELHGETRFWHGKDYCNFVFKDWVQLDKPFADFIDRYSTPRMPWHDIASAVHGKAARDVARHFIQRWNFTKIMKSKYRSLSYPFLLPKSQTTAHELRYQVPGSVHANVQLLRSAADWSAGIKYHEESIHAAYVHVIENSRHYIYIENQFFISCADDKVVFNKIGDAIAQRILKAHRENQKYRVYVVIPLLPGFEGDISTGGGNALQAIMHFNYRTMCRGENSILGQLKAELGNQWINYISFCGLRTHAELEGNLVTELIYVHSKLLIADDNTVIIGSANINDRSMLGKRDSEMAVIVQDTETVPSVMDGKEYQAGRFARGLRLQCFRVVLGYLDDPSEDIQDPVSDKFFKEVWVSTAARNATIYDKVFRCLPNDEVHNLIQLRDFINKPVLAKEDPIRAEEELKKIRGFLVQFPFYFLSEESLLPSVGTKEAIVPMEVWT
Sequence of NADPH oxidase 1 (Q9Y5S8 whole entry): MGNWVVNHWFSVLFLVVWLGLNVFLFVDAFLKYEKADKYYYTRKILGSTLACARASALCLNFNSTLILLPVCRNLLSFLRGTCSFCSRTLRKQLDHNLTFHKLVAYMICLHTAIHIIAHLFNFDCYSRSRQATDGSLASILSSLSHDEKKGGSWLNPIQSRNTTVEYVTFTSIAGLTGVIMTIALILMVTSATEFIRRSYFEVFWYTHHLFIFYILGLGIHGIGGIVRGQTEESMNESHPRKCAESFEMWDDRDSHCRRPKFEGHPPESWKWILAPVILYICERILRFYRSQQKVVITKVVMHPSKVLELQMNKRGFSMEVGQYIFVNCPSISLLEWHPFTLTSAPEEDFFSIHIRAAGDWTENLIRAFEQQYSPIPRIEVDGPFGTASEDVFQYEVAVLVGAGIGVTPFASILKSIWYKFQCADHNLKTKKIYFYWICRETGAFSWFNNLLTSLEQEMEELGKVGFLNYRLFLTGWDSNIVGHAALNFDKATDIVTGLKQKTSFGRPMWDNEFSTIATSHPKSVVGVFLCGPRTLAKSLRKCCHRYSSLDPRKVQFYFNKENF
Sequence of Genome polyprotein (Q2Q167 whole entry, the tested form may be a part): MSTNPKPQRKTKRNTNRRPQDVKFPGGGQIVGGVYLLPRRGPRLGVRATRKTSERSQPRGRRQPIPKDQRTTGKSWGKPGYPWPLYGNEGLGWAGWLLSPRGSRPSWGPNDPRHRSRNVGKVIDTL

Q: With `O=C(/C=C/Nc1ccccc1F)c1ccc(Br)cc1` as the molecule, how does the EC50 [1] read?
A: 74.5 µM (active)

Q: What about the EC50 [2] of the same molecule?
A: > 112 µM (not active)

Q: What about the IC50 [3] of the same molecule?
A: > 55.7 µM (not active)

Q: Which results are given for `COC(=O)[C@@]1(Cc2ccc(OC)cc2)[C@H]2c3cc(C(=O)N(C)C)n(C[C@H](O)CO)c3C[C@H]2CN1C(=O)c1ccccc1`?
A: AC50 [4]: 31.6 µM (inconclusive); IC50 [5]: > 100 µM (active); AC50 [6]: 31.6 µM (inconclusive)

Q: What does the source list for `O=C(NCCN1CCC2(CC1)C(=O)NCN2Cc1ccncc1)c1ccc2ccccc2c1`?
A: IC50 [7]: 0.85 µM (active); IC50 [8]: 20 µM (active)

Q: What does the source list for `Cc1ccc(NC(=O)c2cc(-c3ccco3)nc3ccccc23)cc1S(=O)(=O)N1CCOCC1`?
A: IC50 [9]: > 49.8 µM (not active); IC50 [10]: 5.51 µM (active); IC50 [11]: 8.01 µM (active); IC50 [12]: 26.6 µM (active)

Q: For `COC1=C(NS(=O)(=O)c2ccccc2)C(=O)c2ccccc2C1=O`, which AC50 [13] is on record?
A: 18.9 µM (active)

Q: And the AC50 [14]?
A: > 70 µM (inactive)

Q: And the AC50 [15]?
A: > 70 µM (inactive)

Q: What about the AC50 [16] of the same molecule?
A: 31.8 µM (active)

Q: And the AC50 [17]?
A: 14.5 µM (active)

Q: And the AC50 [18]?
A: 31.8 µM (active)

Q: What about the AC50 [19] of the same molecule?
A: 16.4 µM (active)

Q: And the AC50 [20]?
A: 9.13 µM (active)

Q: What about the AC50 [21] of the same molecule?
A: > 70 µM (inactive)

Q: And the AC50 [22]?
A: > 70 µM (inactive)

Q: What about the AC50 [23] of the same molecule?
A: 6.32 µM (active)

Q: What about the AC50 [24] of the same molecule?
A: > 70 µM (inactive)

Q: And the AC50 [25]?
A: 7.44 µM (active)

Q: And the AC50 [26]?
A: 27.5 µM (active)

Q: For `O=C(Oc1ccccc1N1CCCCC1)c1sc2ccccc2c1Cl`, which IC50 [27] is on record?
A: 2.31 µM (active)

Q: For `CC(C)C[C@@H](CC(=O)N[C@H](CC(=O)N[C@@H]1CCCC[C@H]1C(=O)N[C@H](CC(=O)N[C@@H](CCC(=O)O)CC(=O)O)CC(C)C)C(C)C)NC(=O)[C@@H]1CNCC[C@H]1N`, which AC50 [28] is on record?
A: 31.6 µM (inconclusive)
